Laboratory results as given in paper PMC11052001, “A Novel IRAK4 Inhibitor DW18134 Ameliorates Peritonitis and Inflammatory Bowel Disease” (Molecules, 2024).

Molecular target: T1, IRAK4 (Homo sapiens, UniProt Q9NWZ3)
T1 sequence (Q9NWZ3 1-460): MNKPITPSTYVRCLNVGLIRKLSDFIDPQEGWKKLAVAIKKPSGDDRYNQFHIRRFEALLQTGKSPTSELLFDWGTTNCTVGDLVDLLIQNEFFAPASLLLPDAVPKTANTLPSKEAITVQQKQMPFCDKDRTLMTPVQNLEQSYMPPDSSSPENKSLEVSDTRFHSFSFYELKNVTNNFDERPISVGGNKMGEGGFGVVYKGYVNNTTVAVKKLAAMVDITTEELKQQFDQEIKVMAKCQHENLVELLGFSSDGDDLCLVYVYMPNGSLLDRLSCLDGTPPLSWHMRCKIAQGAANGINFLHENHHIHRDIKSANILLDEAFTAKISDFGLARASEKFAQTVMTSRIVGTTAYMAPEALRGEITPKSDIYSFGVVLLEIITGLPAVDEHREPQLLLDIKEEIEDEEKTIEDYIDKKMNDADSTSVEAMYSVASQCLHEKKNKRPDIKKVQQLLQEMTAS
Assay: enzymatic kinase activity assay
Type: biochemical
Settings: read-out: DW18134

**Q.** `CC1(C)Cc2cc(NC(=O)c3coc(-c4ccnc(N)c4)n3)c(-c3ccncc3)cc2O1` [DW18134] was tested. Which IC50 did it give?
**A.** Its IC50 is 11.2 ± 2 nM.
